Test results reported in patent US10577349B2 (Sanford Burnham Prebys Medical Discovery Institute, priority 2015, dated 2020).
In brackets after ≈: the same amount, converted by molar mass.

What was measured:
[1] = system: UACC903 (BRAF mutant) cell line; test: Reverse phase protein array analysis (RPPA), UACC903; format: cell-based, human; conditions: UACC903, 1 μM, 24 h
Method: UACC903 and WM1346 cells were treated with DMSO (controls) or 1 μM Compound 38 for 24 h in triplicate. Cells were lysed with lysis buffer (1% Triton X-100, 50 mM HEPES, pH 7.4, 150 mM NaCl, 1.5 mM MgCl2, 1 mM EGTA, 100 mM NaF, 10 mM Na pyrophosphate, 1 mM Na3VO4, 10% glycerol, with freshly added protease and phosphatase inhibitors) and centrifuged at 13,000 g for 20 minutes. Denatured protein lysates containing the same amount of protein were then subjected to RPPA analysis at the RPPA Core Facility, Md. Anderson Cancer Center, as previously described (Tibes. R., et al. Reverse phase protein array: validation of a novel proteomic technology and utility for analysis of primary leukemia specimens and hematopoietic stem cells. Molecular cancer therapeutics 5, 2512-2521 (2006)),
A reverse phase protein array (RPPA) analysis of BRAF- and NRAS-mutant melanomas was performed to identify protein networks affected by Compound 38 (Table 4).

[2] = Aqueous Solubility in 1xPBS, pH 7.4; format: physicochemical; conditions: pH 7.4, aqueous buffer

O=C(/C=C/c1cncc(F)c1)c1c(-c2ccccc2)c2cc(Cl)ccc2[nH]c1=O [Compound 38, 6-Chloro-3-[3-(5-fluoro-pyridin-3-yl)-acryloyl]-4-phenyl-1H-quinolin-2-one]
Ratio [Compound 38/DMSO] A-Raf [1]: 0.91
Ratio [Compound 38/DMSO] AR [1]: 0.92
Ratio [Compound 38/DMSO] ATM [1]: 0.79
Ratio [Compound 38/DMSO] ATR [1]: 0.84
Ratio [Compound 38/DMSO] BRCA2 [1]: 0.96
Ratio [Compound 38/DMSO] C-Raf [1]: 0.92
Ratio [Compound 38/DMSO] Chk1 [1]: 0.89
Ratio [Compound 38/DMSO] Ets-1 [1]: 0.92
Ratio [Compound 38/DMSO] GCN5L2 [1]: 0.88
Ratio [Compound 38/DMSO] INPP4b [1]: 0.93
Ratio [Compound 38/DMSO] MSH6 [1]: 0.76
Ratio [Compound 38/DMSO] PI3K-p85 [1]: 0.93
Ratio [Compound 38/DMSO] PI3K-p110-alpha [1]: 0.94
Ratio [Compound 38/DMSO] Rad51 [1]: 0.93
Ratio [Compound 38/DMSO] Raptor [1]: 0.86
Ratio [Compound 38/DMSO] Rictor_pT1135 [1]: 0.84
Ratio [Compound 38/DMSO] S6_pS235_S236 [1]: 0.63
Ratio [Compound 38/DMSO] S6_pS240_S244 [1]: 0.61
Ratio [Compound 38/DMSO] Stat5a [1]: 0.85
Ratio [Compound 38/DMSO] Tuberin [1]: 0.62
Ratio [Compound 38/DMSO] YB1 [1]: 0.77
Ratio [Compound 38/DMSO] c-Kit [1]: 0.86
Ratio [Compound 38/DMSO] c-Myc [1]: 0.72
Ratio [Compound 38/DMSO] mTOR [1]: 0.90
Ratio [Compound 38/DMSO] mTOR_pS2448 [1]: 0.72
Ratio [Compound 38/DMSO] p70-S6K_pT389 [1]: 0.82
solubility [2]: 5.6 µg/mL (≈ 13.8 µM)
